From ChEMBL document CHEMBL1144852, “Optimization of a dihydropyrrolopyrazole series of transforming growth factor-beta type I receptor kinase domain inhibitors: discovery of an orally bioavailable transforming growth factor-beta receptor type I inhibitor as antitumor agent” (J Med Chem, 2008)
The source made the active and inactive calls. The rule behind the calls is not given here.

Assays:
[1] = biological target: Proto-oncogene tyrosine-protein kinase Src (Homo sapiens) (UniProt P12931); assay: Inhibition of cSRC at 20 uM
[2] = Metabolic stability in rat microsomes; format: ADME, Microsome
[3] = biological target: Dual specificity mitogen-activated protein kinase kinase 4 (Homo sapiens) (UniProt P45985); assay: Inhibition of MKK4 at 20 uM
Caco-2 = assay: Permeability from apical to basolateral side of human Caco-2 cell membrane; format: ADME, cell-based
[4] = biological target: Mitogen-activated protein kinase 10 (Homo sapiens) (UniProt P53779); assay: Inhibition of JNK3 at 20 uM
[5] = biological target: Tyrosine-protein kinase ZAP-70 (Homo sapiens) (UniProt P43403); assay: Inhibition of ZAP70 at 20 uM
[6] = biological target: Ribosomal protein S6 kinase beta-1 (Homo sapiens) (UniProt P23443); assay: Inhibition of p70S6K at 20 uM
[7] = biological target: Dual specificity mitogen-activated protein kinase kinase 7 (Homo sapiens) (UniProt O14733); assay: Inhibition of MKK7-beta at 20 uM
[8] = biological target: Cyclin-dependent kinase 1 (Homo sapiens) (UniProt P06493); assay: Inhibition of CDK1 at 20 uM
[9] = biological target: Serine/threonine-protein kinase Chk2 (Homo sapiens) (UniProt O96017); assay: Inhibition of Chk2 at 20 uM
Mus musculus [10] = assay: Inhibition of TGFbeta type receptor 1 in human Calu6 cells xenografted mouse at 50 mg/kg, po by single point IVTI assay; format: functional, Calu-6; parameters: scale not given: the % may be the effect or the level left
Mus musculus [11] = assay: Inhibition of TGFbeta type receptor 1 in human Calu6 cells xenografted mouse at 75 mg/kg, po after 4 hrs by IVTI pharmacodynamic assay; format: functional; details: Calu-6, 4 h
[12] = AUC in rat at 10 mg/kg, po after 24 hrs; format: ADME, organism-based; parameters: time < 24 hr, dose 10 mg/kg, route oral; details: plasma
MX1 = assay: Effect on tumor growth delay in human MX1 cells xenografted in mouse administered 75 mg/kg, po twice a day after 7 days of inoculation for 20 days; format: functional, organism-based; parameters: dose 75 mg/kg
[13] = biological target: MAP kinase-activated protein kinase 5 (Homo sapiens) (UniProt Q8IW41); assay: Inhibition of PRAK at 20 uM
[14] = biological target: Vascular endothelial growth factor receptor 2 (Homo sapiens) (UniProt P35968); assay: Inhibition of KDR at 20 uM
[15] = biological target: Mitogen-activated protein kinase 9 (Homo sapiens) (UniProt P45984); assay: Inhibition of JNK2-alpha-2 at 20 uM
[16] = biological target: Cyclin-dependent kinase 2 (Homo sapiens) (UniProt P24941); assay: Inhibition of CDK2 at 20 uM
[17] = biological target: 5'-AMP-activated protein kinase subunit beta-1 (Homo sapiens) (UniProt Q9Y478); assay: Inhibition of AMPK at 20 uM
[18] = biological target: Serine/threonine-protein kinase Chk1 (Homo sapiens) (UniProt O14757); assay: Inhibition of Chk1 at 20 uM
[19] = biological target: RAF proto-oncogene serine/threonine-protein kinase (Homo sapiens) (UniProt P04049); assay: Inhibition of cRaf at 20 uM
[20] = biological target: Mitogen-activated protein kinase 11 (Homo sapiens) (UniProt Q15759); assay: Inhibition of Sapk2-beta at 20 uM
[21] = Inhibition of PKA at 20 uM
[22] = biological target: Fibroblast growth factor receptor 3 (Homo sapiens) (UniProt P22607); assay: Inhibition of FGFR3 at 20 uM
[23] = biological target: Mitogen-activated protein kinase 14 (Homo sapiens) (UniProt Q16539); assay: Inhibition of Sapk2-alpha at 20 uM
[24] = biological target: Serine/threonine-protein kinase Sgk1 (Homo sapiens) (UniProt O00141); assay: Inhibition of SGK at 20 uM
[25] = biological target: Protein kinase C delta type (Homo sapiens) (UniProt Q05655); assay: Inhibition of PKCdelta at 20 uM
[26] = biological target: Rho-associated protein kinase 2 (Homo sapiens) (UniProt O75116); assay: Inhibition of Rock2 at 20 uM
[27] = biological target: Mitogen-activated protein kinase 13 (Homo sapiens) (UniProt O15264); assay: Inhibition of Sapk4 at 20 uM
[28] = biological target: Protein kinase C alpha type (Homo sapiens) (UniProt P17252); assay: Inhibition of PKCalpha at 20 uM
[29] = biological target: Protein kinase C beta type (Homo sapiens) (UniProt P05771); assay: Inhibition of PKC-beta-2 at 20 uM
[30] = biological target: Serine/threonine-protein kinase N2 (Homo sapiens) (UniProt Q16513); assay: Inhibition of PRK2 at 20 uM
[31] = biological target: Dual specificity mitogen-activated protein kinase kinase 1 (Homo sapiens) (UniProt Q02750); assay: Inhibition of Mek1 at 20 uM
[32] = biological target: Mitogen-activated protein kinase 1 (Homo sapiens) (UniProt P28482); assay: Inhibition of MAPK1 at 20 uM
[33] = biological target: Mitogen-activated protein kinase 12 (Homo sapiens) (UniProt P53778); assay: Inhibition of Sapk3 at 20 uM
[34] = Inhibition of CK2 at 20 uM
[35] = biological target: RAC-alpha serine/threonine-protein kinase (Homo sapiens) (UniProt P31749); assay: Inhibition of PKBalpha at 20 uM
[36] = biological target: Tyrosine-protein kinase Blk (Homo sapiens) (UniProt P51451); assay: Inhibition of Blk at 20 uM
[37] = biological target: Dual specificity mitogen-activated protein kinase kinase 6 (Homo sapiens) (UniProt P52564); assay: Inhibition of MKK6 at 20 uM
[38] = biological target: Tyrosine-protein kinase Fyn (Homo sapiens) (UniProt P06241); assay: Inhibition of Fyn at 20 uM
NIH3T3 = assay: Antiproliferative activity against mouse NIH3T3 cells by [3H]thymidine assay; format: functional, cell-based
[39] = biological target: Tyrosine-protein kinase Lck (Homo sapiens) (UniProt P06239); assay: Inhibition of Lck at 20 uM
[40] = biological target: Glycogen synthase kinase-3 beta (Homo sapiens) (UniProt P49841); assay: Inhibition of GSK3-beta at 20 uM
[41] = biological target: MAP kinase-activated protein kinase 2 (Homo sapiens) (UniProt P49137); assay: Inhibition of MAPKAPK2 at 20 uM
Liver microsomes = assay: Metabolic stability in human liver microsomes; format: ADME, Microsome
Mus musculus [42] = assay: Inhibition of TGFbeta type receptor 1 in orally dosed human Calu6 cells xenografted mouse by IVTI […] assay; format: functional, organism-based; details: Calu-6
[43] = biological target: Ribosomal protein S6 kinase alpha-5 (Homo sapiens) (UniProt O75582); assay: Inhibition of MSK1 at 20 uM
[44] = Inhibition of CaMK2 at 20 uM
[45] = Inhibition of JNK1-alpha at 20 uM
[46] = Oral bioavailability in rat at 10 mg/kg after 24 hrs; format: ADME, organism-based; details: in vivo

Chain of Mitogen-activated protein kinase 10 (Homo sapiens) (P53779 whole entry): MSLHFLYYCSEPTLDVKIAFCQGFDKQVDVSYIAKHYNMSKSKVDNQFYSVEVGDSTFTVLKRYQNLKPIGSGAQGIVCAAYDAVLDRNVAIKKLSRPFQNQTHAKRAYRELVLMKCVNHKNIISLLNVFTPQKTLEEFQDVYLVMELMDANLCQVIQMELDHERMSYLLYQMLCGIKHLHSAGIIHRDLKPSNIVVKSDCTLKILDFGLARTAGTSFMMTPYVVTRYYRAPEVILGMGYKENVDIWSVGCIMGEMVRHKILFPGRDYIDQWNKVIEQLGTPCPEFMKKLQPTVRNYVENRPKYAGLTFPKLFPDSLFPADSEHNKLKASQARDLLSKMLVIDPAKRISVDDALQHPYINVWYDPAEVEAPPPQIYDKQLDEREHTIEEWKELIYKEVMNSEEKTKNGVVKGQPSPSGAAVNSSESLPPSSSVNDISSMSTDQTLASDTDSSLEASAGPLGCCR
Chain of Mitogen-activated protein kinase 9 (Homo sapiens) (P45984 whole entry, looked up): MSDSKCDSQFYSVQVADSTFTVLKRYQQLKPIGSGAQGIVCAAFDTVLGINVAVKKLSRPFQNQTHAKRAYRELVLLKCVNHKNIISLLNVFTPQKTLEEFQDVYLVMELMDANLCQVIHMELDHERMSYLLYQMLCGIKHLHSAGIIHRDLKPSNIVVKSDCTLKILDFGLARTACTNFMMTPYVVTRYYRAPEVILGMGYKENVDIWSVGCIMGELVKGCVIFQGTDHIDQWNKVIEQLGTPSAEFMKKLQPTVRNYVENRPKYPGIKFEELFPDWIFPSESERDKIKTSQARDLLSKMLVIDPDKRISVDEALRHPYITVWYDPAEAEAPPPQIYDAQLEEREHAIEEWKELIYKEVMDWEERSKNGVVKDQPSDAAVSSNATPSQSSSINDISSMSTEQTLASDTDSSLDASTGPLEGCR
Chain of Glycogen synthase kinase-3 beta (Homo sapiens) (P49841 whole entry, looked up): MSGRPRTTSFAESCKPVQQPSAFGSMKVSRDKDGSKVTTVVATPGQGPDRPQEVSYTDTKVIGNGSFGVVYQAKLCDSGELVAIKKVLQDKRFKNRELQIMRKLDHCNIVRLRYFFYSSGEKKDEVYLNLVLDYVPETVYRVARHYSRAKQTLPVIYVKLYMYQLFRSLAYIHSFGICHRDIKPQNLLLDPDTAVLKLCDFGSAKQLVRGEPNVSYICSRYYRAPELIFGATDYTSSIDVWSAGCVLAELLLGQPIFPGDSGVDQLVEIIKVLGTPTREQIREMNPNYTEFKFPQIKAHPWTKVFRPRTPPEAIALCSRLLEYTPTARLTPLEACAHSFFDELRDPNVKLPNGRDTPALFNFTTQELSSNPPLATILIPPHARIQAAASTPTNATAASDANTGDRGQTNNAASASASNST
Chain of MAP kinase-activated protein kinase 2 (Homo sapiens) (P49137 whole entry, looked up): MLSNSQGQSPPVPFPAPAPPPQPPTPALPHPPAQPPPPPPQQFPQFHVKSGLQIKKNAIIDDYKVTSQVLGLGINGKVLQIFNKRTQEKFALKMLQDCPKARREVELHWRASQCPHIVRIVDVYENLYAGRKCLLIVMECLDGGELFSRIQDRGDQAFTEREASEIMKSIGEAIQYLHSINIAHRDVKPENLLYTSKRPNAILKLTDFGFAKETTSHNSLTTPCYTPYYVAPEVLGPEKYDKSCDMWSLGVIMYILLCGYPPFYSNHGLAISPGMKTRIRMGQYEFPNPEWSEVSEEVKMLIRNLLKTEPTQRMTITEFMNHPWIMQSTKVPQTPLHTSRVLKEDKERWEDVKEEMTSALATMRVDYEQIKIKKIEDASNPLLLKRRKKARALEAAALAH
Chain of Protein kinase C delta type (Homo sapiens) (Q05655 whole entry, looked up): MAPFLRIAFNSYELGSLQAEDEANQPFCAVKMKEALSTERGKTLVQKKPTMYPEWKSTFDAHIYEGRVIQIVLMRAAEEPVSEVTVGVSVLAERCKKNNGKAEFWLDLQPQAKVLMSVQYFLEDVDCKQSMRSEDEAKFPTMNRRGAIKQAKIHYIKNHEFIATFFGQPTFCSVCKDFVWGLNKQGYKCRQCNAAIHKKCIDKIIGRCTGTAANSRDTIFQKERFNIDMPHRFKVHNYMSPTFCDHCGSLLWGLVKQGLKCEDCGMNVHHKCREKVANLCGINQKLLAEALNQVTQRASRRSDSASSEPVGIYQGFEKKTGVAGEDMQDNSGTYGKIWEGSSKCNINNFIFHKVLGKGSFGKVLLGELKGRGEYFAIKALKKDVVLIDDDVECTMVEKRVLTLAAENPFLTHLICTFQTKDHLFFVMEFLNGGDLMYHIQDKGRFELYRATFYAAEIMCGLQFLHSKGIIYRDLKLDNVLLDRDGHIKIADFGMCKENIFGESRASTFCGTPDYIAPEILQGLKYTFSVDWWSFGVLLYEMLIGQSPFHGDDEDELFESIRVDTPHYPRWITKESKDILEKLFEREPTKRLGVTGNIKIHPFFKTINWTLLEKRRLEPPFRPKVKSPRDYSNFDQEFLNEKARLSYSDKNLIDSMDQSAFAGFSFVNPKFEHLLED
Chain of Mitogen-activated protein kinase 13 (Homo sapiens) (O15264 whole entry): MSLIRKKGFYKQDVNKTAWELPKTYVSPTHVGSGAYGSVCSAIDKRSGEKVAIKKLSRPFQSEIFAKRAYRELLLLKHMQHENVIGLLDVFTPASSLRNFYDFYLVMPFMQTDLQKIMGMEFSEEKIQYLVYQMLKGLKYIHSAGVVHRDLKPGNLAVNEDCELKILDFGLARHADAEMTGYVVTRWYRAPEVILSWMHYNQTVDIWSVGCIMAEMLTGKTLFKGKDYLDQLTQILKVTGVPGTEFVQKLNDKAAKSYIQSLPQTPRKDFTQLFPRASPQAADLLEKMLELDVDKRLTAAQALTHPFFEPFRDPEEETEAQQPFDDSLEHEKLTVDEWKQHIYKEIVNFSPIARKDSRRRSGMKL
Chain of Cyclin-dependent kinase 1 (Homo sapiens) (P06493 whole entry, looked up): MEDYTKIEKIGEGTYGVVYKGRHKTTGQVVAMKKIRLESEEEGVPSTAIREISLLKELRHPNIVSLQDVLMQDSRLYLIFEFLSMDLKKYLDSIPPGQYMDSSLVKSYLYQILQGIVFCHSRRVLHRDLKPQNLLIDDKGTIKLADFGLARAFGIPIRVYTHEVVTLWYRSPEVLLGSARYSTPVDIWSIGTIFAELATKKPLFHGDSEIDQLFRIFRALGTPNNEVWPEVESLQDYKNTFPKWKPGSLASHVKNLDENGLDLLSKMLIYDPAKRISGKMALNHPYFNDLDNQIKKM
Chain of Serine/threonine-protein kinase Sgk1 (Homo sapiens) (O00141 whole entry): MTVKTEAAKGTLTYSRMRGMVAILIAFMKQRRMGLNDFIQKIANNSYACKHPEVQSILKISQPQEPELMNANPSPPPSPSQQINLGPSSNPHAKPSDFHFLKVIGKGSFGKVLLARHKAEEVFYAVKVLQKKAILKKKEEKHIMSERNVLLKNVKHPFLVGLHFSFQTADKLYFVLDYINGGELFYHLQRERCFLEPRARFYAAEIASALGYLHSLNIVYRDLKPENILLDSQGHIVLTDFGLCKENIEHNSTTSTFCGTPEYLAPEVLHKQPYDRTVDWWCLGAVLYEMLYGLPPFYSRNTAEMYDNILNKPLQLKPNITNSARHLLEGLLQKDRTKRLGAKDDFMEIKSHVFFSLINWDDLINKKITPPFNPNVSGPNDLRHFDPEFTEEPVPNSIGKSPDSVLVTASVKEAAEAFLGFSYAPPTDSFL
Chain of Mitogen-activated protein kinase 1 (Homo sapiens) (P28482 whole entry): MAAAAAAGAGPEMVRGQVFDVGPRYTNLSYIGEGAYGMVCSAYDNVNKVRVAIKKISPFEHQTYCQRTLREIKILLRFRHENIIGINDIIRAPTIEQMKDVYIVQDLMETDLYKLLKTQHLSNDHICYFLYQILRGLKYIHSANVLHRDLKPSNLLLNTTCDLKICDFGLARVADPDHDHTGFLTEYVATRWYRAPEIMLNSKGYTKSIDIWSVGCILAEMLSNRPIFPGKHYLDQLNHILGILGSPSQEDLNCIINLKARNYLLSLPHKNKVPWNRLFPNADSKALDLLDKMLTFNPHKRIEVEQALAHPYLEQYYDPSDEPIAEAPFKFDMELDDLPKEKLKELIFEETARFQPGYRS
Chain of Serine/threonine-protein kinase N2 (Homo sapiens) (Q16513 whole entry, looked up): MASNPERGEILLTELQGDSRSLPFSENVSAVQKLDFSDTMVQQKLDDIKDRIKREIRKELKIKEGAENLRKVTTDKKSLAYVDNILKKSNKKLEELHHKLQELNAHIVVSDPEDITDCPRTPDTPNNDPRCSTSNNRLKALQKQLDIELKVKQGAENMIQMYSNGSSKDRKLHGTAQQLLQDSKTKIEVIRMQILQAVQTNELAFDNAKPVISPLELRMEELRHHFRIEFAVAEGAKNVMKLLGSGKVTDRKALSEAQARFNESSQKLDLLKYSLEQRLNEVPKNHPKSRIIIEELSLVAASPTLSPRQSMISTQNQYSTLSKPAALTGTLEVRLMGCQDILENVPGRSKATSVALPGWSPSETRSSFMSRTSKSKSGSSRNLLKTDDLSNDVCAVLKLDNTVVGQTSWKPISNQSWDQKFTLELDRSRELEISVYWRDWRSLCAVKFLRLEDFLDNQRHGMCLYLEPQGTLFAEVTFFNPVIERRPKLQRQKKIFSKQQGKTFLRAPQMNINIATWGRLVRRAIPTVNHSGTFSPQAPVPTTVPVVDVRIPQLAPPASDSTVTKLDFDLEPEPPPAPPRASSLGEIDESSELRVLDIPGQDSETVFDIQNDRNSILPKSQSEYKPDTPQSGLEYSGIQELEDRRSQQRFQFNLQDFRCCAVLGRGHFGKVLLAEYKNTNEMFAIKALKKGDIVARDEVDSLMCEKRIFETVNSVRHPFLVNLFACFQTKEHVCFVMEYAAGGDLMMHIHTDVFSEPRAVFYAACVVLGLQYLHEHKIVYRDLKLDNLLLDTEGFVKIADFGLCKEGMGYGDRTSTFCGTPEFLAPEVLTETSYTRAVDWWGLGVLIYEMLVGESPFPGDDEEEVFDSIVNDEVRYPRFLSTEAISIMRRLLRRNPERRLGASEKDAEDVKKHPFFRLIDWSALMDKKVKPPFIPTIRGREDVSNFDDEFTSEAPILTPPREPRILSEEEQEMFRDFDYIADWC

## c1ccc(-c2nn3c(c2-c2ccnc4cc(OCCN5CCOCC5)ccc24)CCC3)nc1
[1]
  inhibition: < 50%
[2]
  Stability: 58%
[3]
  inhibition: < 50%
Caco-2
  permeability: 28%
[4]
  inhibition: 68%
[5]
  inhibition: < 50%
[6]
  inhibition: < 50%
[7]
  inhibition: < 50%
[8]
  inhibition: < 50%
[9]
  inhibition: < 50%
Mus musculus [10]
  Activity: 56%
Mus musculus [11]
  inhibition in vivo at 75 mg/kg: 48%
[12]
  AUC at 24 h: 1000 ng·h/mL
MX1
  Activity: Active
[13]
  inhibition: < 50%
[14]
  inhibition: < 50%
[15]
  inhibition: < 50%
[16]
  inhibition: < 50%
[17]
  inhibition: < 50%
[18]
  inhibition: < 50%
[19]
  inhibition: < 50%
[20]
  inhibition: 47%
[21]
  inhibition: < 50%
[22]
  inhibition: < 50%
[23]
  inhibition: 89%
[24]
  inhibition: < 50%
[25]
  inhibition: < 50%
[26]
  inhibition: < 50%
[27]
  inhibition: < 50%
[28]
  inhibition: < 50%
[29]
  inhibition: < 50%
[30]
  inhibition: < 50%
[31]
  inhibition: < 50%
[32]
  inhibition: 31%
[33]
  inhibition: < 50%
[34]
  inhibition: < 50%
[35]
  inhibition: < 50%
[36]
  inhibition: < 50%
[37]
  inhibition: 80%
[38]
  inhibition: 58%
NIH3T3
  IC50: 210 nM
[39]
  inhibition: 69%
[40]
  inhibition: < 50%
[41]
  inhibition: < 50%
Liver microsomes
  Stability: 27%
Mus musculus [42]
  EC50: 236 nM
[43]
  inhibition: < 50%
[44]
  inhibition: < 50%
[45]
  inhibition: < 50%
[46]
  bioavailability: 21%
